Assay results from patent publication EP0762893B1, “TREATMENT OF PLASMA” (SUOMEN PUNAINEN RISTI VERIPALVELU, priority 1994, dated 1995).

How the values were obtained:
[1] = Disappearance of ascorbate and urate from plasma during MB photochemical treatment (HPLC); conditions: compared with ascorbate
Method: To study the effect of added ascorbate, we used a plasma pool with a low ascorbate level (35 µmol/l). […] Ascorbate was added to the plasma at different concentrations before MB that was used at a final concentration of 1 µmol/l. Plasma samples of 2 ml were illuminated in 2.5 ml cryotubes (Falcon) with TL-M 115/33 RS fluorescent tubes (Philips) for 1 h. A transparent cooling plate with fluid circulation was placed between the plasma samples and the fluorescent tubes to keep the temperature of the plasma below 22 °C. The irradiation power at the level of the plasma tubes was 1.9 mW/cm^2 at 595-695 nm (40 000 lux). After illumination, the samples were divided into portions of 0.5 ml and frozen.
To study the fate of ascorbate during MB treatment, we followed the concentration of ascorbate at different stages of the treatment and compared it to urate, another antioxidant considered important in plasma. Plasma was illuminated with the fluorescent tubes in 2 ml portions as in Example 1, and the illumination was interrupted at different periods. Urate was measured with the same HPLC method as ascorbate.

[2] = test system: fibrinogen; assay: Inactivation of clottable fibrinogen during MB photochemical treatment of 2 ml pooled plasma samples (thromboplastin time assay); assay type: biochemical; conditions: 1 µmol/l of MB, TL-M 115/33 fluorescent tubes for 1 h
[3] = test system: F VIII; assay: Inactivation of F VIII activity during MB photochemical treatment of 2 ml pooled plasma samples (chromogenic substrate assay); assay type: biochemical; conditions: 1 µmol/l of MB, TL-M 115/33 fluorescent tubes for 1 h

Compound | disappearance of urate from plasma [1] | absorbing form of MB after dilution | extent of inactivation of fibrinogen [2] | extent of inactivation of factor VIII [3]
O=c1[nH]c(=O)c2[nH]c(=O)[nH]c2[nH]1 [Urate, urate] | clearly more slowly than ascorbate |  |  | 
CN(C)c1ccc2nc3ccc(=[N+](C)C)cc-3sc2c1 [MB, methylene blue] |  | quantitatively restored | about 50% | ~40%
